Source: ChEMBL document CHEMBL3994575, “Helixconstraints and amino acid substitution in GLP-1 increase cAMP and insulin secretion but not beta-arrestin 2 signaling” (Eur J Med Chem, 2017)
Positions of bridges follow the written chain, without caps; N, C: chain ends. Residues, ends and D or L forms follow the SMILES beside them.

Assays:
[1] = target: T1, Glucagon-like peptide 1 receptor (Homo sapiens, UniProt P43220); assay: Agonist activity at human GLP1R expressed in CHO cells assessed as cAMP accumulation incubated for 30 mins by LANCE assay; type: functional, cell-based
[2] = target: T1, Glucagon-like peptide 1 receptor; assay: Agonist activity at human GLP1R expressed in CHOK1 cells assessed as induction of beta-galactosidase-tagged beta-arrestin2 recruitment incubated for 90 mins by PathHunter enzyme complementation assay; type: cell-based
[3] = target: T2, Glucagon-like peptide 1 receptor (Rattus norvegicus, UniProt P32301); assay: Agonist activity at GLP1R in rat INS-1 cells assessed as increase in glucose-stimulated insulin secretion after 1 hr by HTRF assay; type: cell-based
T2 sequence (P32301 whole entry): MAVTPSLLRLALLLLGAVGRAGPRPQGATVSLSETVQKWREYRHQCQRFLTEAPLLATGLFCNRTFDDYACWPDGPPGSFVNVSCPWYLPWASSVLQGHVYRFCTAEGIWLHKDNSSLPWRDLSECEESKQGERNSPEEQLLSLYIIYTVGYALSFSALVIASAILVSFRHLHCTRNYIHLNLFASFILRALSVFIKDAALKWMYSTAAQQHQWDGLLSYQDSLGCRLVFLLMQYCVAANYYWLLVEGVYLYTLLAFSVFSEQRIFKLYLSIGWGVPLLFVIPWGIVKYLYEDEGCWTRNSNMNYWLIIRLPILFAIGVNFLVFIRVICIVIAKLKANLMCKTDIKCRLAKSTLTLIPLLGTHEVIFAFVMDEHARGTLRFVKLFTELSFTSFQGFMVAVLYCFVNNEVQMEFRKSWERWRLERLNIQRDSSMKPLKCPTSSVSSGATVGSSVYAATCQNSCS

[4] = target: T1, Glucagon-like peptide 1 receptor; assay: Displacement of [125I]-GLP (7 to 36 residues) from human GLP1R expressed in CHO cell membranes incubated for 30 mins measured after 10 hrs by scintillation proximity assay

T1 sequence (P43220 whole entry): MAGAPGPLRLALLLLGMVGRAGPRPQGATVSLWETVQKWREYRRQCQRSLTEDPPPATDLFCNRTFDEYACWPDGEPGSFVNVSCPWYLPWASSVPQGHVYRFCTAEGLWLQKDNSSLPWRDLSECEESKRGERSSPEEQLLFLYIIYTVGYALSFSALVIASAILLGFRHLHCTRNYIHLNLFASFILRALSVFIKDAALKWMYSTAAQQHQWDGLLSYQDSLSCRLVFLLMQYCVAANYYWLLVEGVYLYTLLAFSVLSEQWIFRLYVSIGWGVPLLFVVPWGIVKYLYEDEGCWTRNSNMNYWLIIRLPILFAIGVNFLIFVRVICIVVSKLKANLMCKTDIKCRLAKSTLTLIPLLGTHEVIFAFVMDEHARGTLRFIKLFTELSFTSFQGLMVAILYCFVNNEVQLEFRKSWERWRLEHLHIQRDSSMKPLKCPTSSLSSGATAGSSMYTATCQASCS

Row | EC50 [1] [nM] | EC50 [2] [nM] | EC50 [3] [nM] | Ki [4] [nM] | SMILES
1 | 20 | > 1000 | 130 | > 50 | CC[C@H](C)[C@H](NC(=O)[C@H](Cc1ccccc1)NC(=O)[C@H](CCC(=O)O)NC(=O)[C@H](CCCCN)NC(=O)[C@H](C)NC(=O)[C@H](C)NC(=O)[C@H](CCC(N)=O)NC(=O)CNC(=O)[C@@H]1CCCN1C(=O)[C@H](CC(C)C)NC(=O)[C@H](Cc1ccc(O)cc1)NC(=O)[C@H](CO)NC(=O)[C@H](CO)NC(=O)[C@@H](NC(=O)[C@H](CC(=O)O)NC(=O)[C@H](CO)NC(=O)[C@@H](NC(=O)[C@H](Cc1ccccc1)NC(=O)[C@@H](NC(=O)CNC(=O)[C@H](CCC(=O)O)NC(=O)[C@H](C)NC(=O)[C@@H](N)Cc1cnc[nH]1)[C@@H](C)O)[C@@H](C)O)C(C)C)C(=O)N[C@H]1CCCCNC(=O)C[C@@H](C(=O)NCC(=O)N[C@@H](CCCNC(=N)N)C(=O)NCC(N)=O)NC(=O)[C@H](C(C)C)NC(=O)[C@H](CC(C)C)NC(=O)[C@H](Cc2c[nH]c3ccccc23)NC1=O (H-HAEGTFTSDVSSYLPGQAAKEFIKWLVDGRG-NH2; lactam 24-28)
2 | 0.011 | 4.6 |  | 0.47 | CC[C@H](C)[C@H](NC(=O)[C@H](Cc1ccccc1)NC(=O)[C@H](CCC(=O)O)NC(=O)[C@H](CCCCN)NC(=O)[C@H](C)NC(=O)[C@H](C)NC(=O)[C@H](CCC(N)=O)NC(=O)[C@H](C)NC(=O)[C@H](CCC(=O)O)NC(=O)[C@H](CC(C)C)NC(=O)[C@H](Cc1ccc(O)cc1)NC(=O)[C@H](CO)NC(=O)[C@H](CO)NC(=O)[C@H](Cc1ccc(O)cc1)NC(=O)[C@H](CC(=O)O)NC(=O)[C@H](CO)NC(=O)[C@@H](NC(=O)[C@H](Cc1ccccc1)NC(=O)[C@@H](NC(=O)CNC(=O)[C@H](CCC(=O)O)NC(=O)[C@H](C)NC(=O)[C@@H](N)Cc1cnc[nH]1)[C@@H](C)O)[C@@H](C)O)C(=O)N[C@H]1CCCCNC(=O)C[C@@H](C(=O)NCC(=O)N[C@@H](CCCNC(=N)N)C(=O)NCC(N)=O)NC(=O)[C@H](C(C)C)NC(=O)[C@H](CC(C)C)NC(=O)[C@H](Cc2c[nH]c3ccccc23)NC1=O (H-HAEGTFTSDYSSYLEAQAAKEFIKWLVDGRG-NH2; lactam 24-28)
3 | 0.023 | 3.4 |  | 0.49 | CC[C@H](C)[C@H](NC(=O)[C@H](Cc1ccccc1)NC(=O)[C@H](CCC(=O)O)NC(=O)[C@H](CCCCN)NC(=O)[C@H](C)NC(=O)[C@H](C)NC(=O)[C@H](CCC(N)=O)NC(=O)CNC(=O)[C@H](CCC(=O)O)NC(=O)[C@H](CC(C)C)NC(=O)[C@H](Cc1ccc(O)cc1)NC(=O)[C@H](CO)NC(=O)[C@H](CO)NC(=O)[C@H](Cc1ccc(O)cc1)NC(=O)[C@H](CC(=O)O)NC(=O)[C@H](CO)NC(=O)[C@@H](NC(=O)[C@H](Cc1ccccc1)NC(=O)[C@@H](NC(=O)CNC(=O)[C@H](CCC(=O)O)NC(=O)[C@H](C)NC(=O)[C@@H](N)Cc1cnc[nH]1)[C@@H](C)O)[C@@H](C)O)C(=O)N[C@H]1CCCCNC(=O)C[C@@H](C(=O)NCC(=O)N[C@@H](CCCNC(=N)N)C(=O)NCC(N)=O)NC(=O)[C@H](C(C)C)NC(=O)[C@H](CC(C)C)NC(=O)[C@H](Cc2c[nH]c3ccccc23)NC1=O (H-HAEGTFTSDYSSYLEGQAAKEFIKWLVDGRG-NH2; lactam 24-28)

Second part, the molecule before the results:

Row | SMILES | EC50 [1] [nM] | EC50 [2] [nM] | EC50 [3] [nM] | Ki [4] [nM]
4 | CC[C@H](C)[C@H](NC(=O)[C@H](Cc1ccccc1)NC(=O)[C@H](CCC(=O)O)NC(=O)[C@H](CCCCN)NC(=O)[C@H](C)NC(=O)[C@H](C)NC(=O)[C@H](CCC(N)=O)NC(=O)CNC(=O)[C@H](CCC(=O)O)NC(=O)[C@H](CC(C)C)NC(=O)[C@H](Cc1ccc(O)cc1)NC(=O)[C@H](CO)NC(=O)[C@H](Cc1ccc(O)cc1)NC(=O)[C@@H](NC(=O)[C@H](CC(=O)O)NC(=O)[C@H](CO)NC(=O)[C@@H](NC(=O)[C@H](Cc1ccccc1)NC(=O)[C@@H](NC(=O)CNC(=O)[C@H](CCC(=O)O)NC(=O)[C@H](C)NC(=O)[C@@H](N)Cc1cnc[nH]1)[C@@H](C)O)[C@@H](C)O)C(C)C)C(=O)N[C@@H](C)C(=O)N[C@@H](Cc1c[nH]c2ccccc12)C(=O)N[C@@H](CC(C)C)C(=O)N[C@H](C(=O)N[C@@H](CCCCN)C(=O)NCC(=O)N[C@@H](CCCNC(=N)N)C(=O)NCC(N)=O)C(C)C |  |  | 16 | 
5 | CC[C@H](C)[C@H](NC(=O)[C@H](Cc1ccccc1)NC(=O)[C@H](CCC(=O)O)NC(=O)[C@H](CCCCN)NC(=O)[C@H](C)NC(=O)[C@H](C)NC(=O)[C@H](CCC(N)=O)NC(=O)CNC(=O)[C@H](CCC(=O)O)NC(=O)[C@H](CC(C)C)NC(=O)[C@H](Cc1ccc(O)cc1)NC(=O)[C@H](CO)NC(=O)[C@H](CO)NC(=O)[C@@H](NC(=O)[C@H](CC(=O)O)NC(=O)[C@H](CO)NC(=O)[C@@H](NC(=O)[C@H](Cc1ccccc1)NC(=O)[C@@H]1CSC(=O)CN[C@@H](Cc2cnc[nH]2)C(=O)N[C@@H](C)C(=O)N[C@@H](CCC(=O)O)C(=O)NCC(=O)N1)[C@@H](C)O)C(C)C)C(=O)N[C@@H](C)C(=O)N[C@@H](Cc1c[nH]c2ccccc12)C(=O)N[C@@H](CC(C)C)C(=O)N[C@H](C(=O)N[C@@H](CCCCN)C(=O)NCC(=O)N[C@@H](CCCNC(=N)N)C(=O)NCC(N)=O)C(C)C | > 10000 | > 10000 |  | > 50
6 | CC[C@H](C)[C@H](NC(=O)[C@H](Cc1ccccc1)NC(=O)[C@H](CCC(=O)O)NC(=O)[C@H](CCCCN)NC(=O)[C@H](C)NC(=O)[C@H](C)NC(=O)[C@H](CCC(N)=O)NC(=O)[C@@H]1CCC(=O)NCCCC[C@H](NC(=O)[C@H](CO)NC(=O)[C@H](Cc2ccc(O)cc2)NC(=O)[C@H](CC(=O)O)NC(=O)[C@H](CO)NC(=O)[C@@H](NC(=O)[C@H](Cc2ccccc2)NC(=O)[C@@H](NC(=O)CNC(=O)[C@H](CCC(=O)O)NC(=O)[C@H](C)NC(=O)[C@@H](N)Cc2cnc[nH]2)[C@@H](C)O)[C@@H](C)O)C(=O)N[C@@H](Cc2ccc(O)cc2)C(=O)N[C@@H](CC(C)C)C(=O)N[C@@H](CCC(=O)O)C(=O)N1)C(=O)N[C@H]1CCCCNC(=O)C[C@@H](C(=O)NCC(=O)N[C@@H](CCCNC(=N)N)C(=O)NCC(N)=O)NC(=O)[C@H](C(C)C)NC(=O)[C@H](CC(C)C)NC(=O)[C@H](Cc2c[nH]c3ccccc23)NC1=O (H-HAEGTFTSDYSKYLEEQAAKEFIKWLVDGRG-NH2; lactam 12-16, 24-28) | 0.009 | 8.8 |  | 0.82
7 | CC[C@H](C)[C@H](NC(=O)[C@H](Cc1ccccc1)NC(=O)[C@H](CCC(=O)O)NC(=O)[C@H](CCCCN)NC(=O)[C@H](C)NC(=O)[C@H](C)NC(=O)[C@H](CCC(N)=O)NC(=O)CNC(=O)[C@H](CCC(=O)O)NC(=O)[C@H](CC(C)C)NC(=O)[C@H](Cc1ccc(O)cc1)NC(=O)[C@@H]1CC(=O)NCCCC[C@H](NC(=O)[C@@H](NC(=O)[C@H](Cc2ccccc2)NC(=O)[C@@H](NC(=O)CNC(=O)[C@H](CCC(=O)O)NC(=O)[C@H](C)NC(=O)[C@@H](N)Cc2cnc[nH]2)[C@@H](C)O)[C@@H](C)O)C(=O)N[C@@H](CC(=O)O)C(=O)N[C@@H](C(C)C)C(=O)N[C@@H](CO)C(=O)N1)C(=O)N[C@@H](C)C(=O)N[C@@H](Cc1c[nH]c2ccccc12)C(=O)N[C@@H](CC(C)C)C(=O)N[C@H](C(=O)N[C@@H](CCCCN)C(=O)NCC(=O)N[C@@H](CCCNC(=N)N)C(=O)NCC(N)=O)C(C)C (H-HAEGTFTKDVSDYLEGQAAKEFIAWLVKGRG-NH2; lactam 8-12) |  |  | 50 | 
